Values joined by “and” are separate entries in the source; they are usually repeats but may differ in a detail not shown here. Equal values may be shown once. Toxic doses and inconclusive results are not listed. Cut-off read from the data, not from the text of the source: active = T/C of 150% or more; inactive = T/C below 125%.
Tested on: L1210 leukemia ip in BDF1 mice, survival T/C
Experiment: NCI In Vivo Anticancer Drug Screen. Data for tumor model L1210 Leukemia (intraperitoneal) in B6D2F1 (BDF1) mice
Conditions: endpoint: mean survival time, higher = longer survival
Summary of the method: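 In this screen, tumor-bearing mice given compound are compared to those given vehicle, and their survival values are reported as a treated-to-control quotient.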

[1] = dose: 100.0 mg/kg/injection, schedule: Q01DX001 (ip), vehicle: other
[2] = dose: 100.0 mg/kg/injection, schedule: Q04DX003 (ip), vehicle: Klucel (hydroxypropylcellulose) (HPC)
[3] = dose: 50.0 mg/kg/injection, schedule: Q01DX009 (ip), vehicle: Klucel (hydroxypropylcellulose) (HPC)
[4] = dose: 100.0 mg/kg/injection, schedule: Q01DX009 (ip), vehicle: Klucel (hydroxypropylcellulose) (HPC)
[5] = dose: 200.0 mg/kg/injection, schedule: Q01DX009 (ip), vehicle: Klucel (hydroxypropylcellulose) (HPC)
[6] = dose: 400.0 mg/kg/injection, schedule: Q01DX009 (ip), vehicle: Klucel (hydroxypropylcellulose) (HPC)
[7] = dose: 200.0 mg/kg/injection, schedule: Q04DX003 (ip), vehicle: Klucel (hydroxypropylcellulose) (HPC)
[8] = dose: 400.0 mg/kg/injection, schedule: Q04DX003 (ip), vehicle: Klucel (hydroxypropylcellulose) (HPC)
[9] = dose: 100.0 mg/kg/injection, schedule: Q04DX003 (ip), vehicle: saline
[10] = dose: 200.0 mg/kg/injection, schedule: Q04DX003 (ip), vehicle: saline
[11] = dose: 400.0 mg/kg/injection, schedule: Q04DX003 (ip), vehicle: saline

Measured: T/C

O=C(/C=C\c1ccccc1)C(=O)/C=C/c1ccccc1
inactive: dose: 25.0 mg/kg/injection, schedule: Q01DX009 (ip), vehicle: other 93 % of control | dose: 25.0 mg/kg/injection, schedule: Q04DX003 (ip), vehicle: Klucel (hydroxypropylcellulose) (HPC) 105 % of control | dose: 50.0 mg/kg/injection, schedule: Q01DX009 (ip), vehicle: other 98 % of control | dose: 50.0 mg/kg/injection, schedule: Q04DX003 (ip), vehicle: Klucel (hydroxypropylcellulose) (HPC) 94 % of control | [1] 89 % of control | [2] 86 % of control

Cc1cc(CO)c(O)c(CO)c1
inactive: [1] 108 % of control | dose: 100.0 mg/kg/injection, schedule: Q01DX009 (ip), vehicle: saline 97 % of control | dose: 200.0 mg/kg/injection, schedule: Q01DX001 (ip), vehicle: other 100 % of control | dose: 200.0 mg/kg/injection, schedule: Q01DX009 (ip), vehicle: saline 103 % of control | dose: 400.0 mg/kg/injection, schedule: Q01DX001 (ip), vehicle: other 103 % of control | dose: 400.0 mg/kg/injection, schedule: Q01DX009 (ip), vehicle: saline 103 % of control

CC1(C)CC(C)(c2ccccc2)c2ccccc21 (stereo not drawn)
inactive: [3] 101 % of control | dose: 75.0 mg/kg/injection, schedule: Q04DX003 (ip), vehicle: Klucel (hydroxypropylcellulose) (HPC) 104 % of control | [4] 95 % of control | dose: 150.0 mg/kg/injection, schedule: Q04DX003 (ip), vehicle: Klucel (hydroxypropylcellulose) (HPC) 102 % of control | [5] 95 % of control | dose: 300.0 mg/kg/injection, schedule: Q04DX003 (ip), vehicle: Klucel (hydroxypropylcellulose) (HPC) 102 % of control

CC1OC(=O)C(=O)C1(C)C (stereo not drawn)
inactive: dose: 32.0 mg/kg/injection, schedule: Q01DX001 (ip), vehicle: carboxymethylcellulose (CMC) 100 % of control | dose: 62.5 mg/kg/injection, schedule: Q01DX001 (ip), vehicle: carboxymethylcellulose (CMC) 102 % of control | dose: 125.0 mg/kg/injection, schedule: Q01DX001 (ip), vehicle: carboxymethylcellulose (CMC) 93 % of control | dose: 250.0 mg/kg/injection, schedule: Q01DX001 (ip), vehicle: carboxymethylcellulose (CMC) 100 % of control | dose: 500.0 mg/kg/injection, schedule: Q01DX001 (ip), vehicle: carboxymethylcellulose (CMC) 107 % of control

CC(CS)CS
inactive: dose: 100.0 mg/kg/injection, schedule: Q01DX001 (ip), vehicle: carboxymethylcellulose (CMC) 95 % of control | dose: 200.0 mg/kg/injection, schedule: Q01DX001 (ip), vehicle: carboxymethylcellulose (CMC) 95 % of control | dose: 400.0 mg/kg/injection, schedule: Q01DX001 (ip), vehicle: carboxymethylcellulose (CMC) 95 % of control

O=S(=O)(c1ccc(Nc2nc(Cl)nc(Cl)n2)cc1)N(CCCl)CCCl
inactive: [4] 103 % of control | [5] 104 % of control | [6] 107 % of control

COC(=O)C1C2CCC1(C)C(O)C2 (stereo not drawn)
inactive: dose: 75.0 mg/kg/injection, schedule: Q01DX009 (ip), vehicle: saline with Tween-80 96 % of control | dose: 150.0 mg/kg/injection, schedule: Q01DX009 (ip), vehicle: saline with Tween-80 107 % of control | dose: 300.0 mg/kg/injection, schedule: Q01DX009 (ip), vehicle: saline with Tween-80 100 % of control

CCN=C(N)c1ccc(NC(=O)c2ccc(C(=O)Nc3ccc(C(N)=NCC)cc3)cc2)cc1
inactive: dose: 1.0 mg/kg/injection, schedule: Q01DX Z (ip), vehicle: other 115 % of control | dose: 2.0 mg/kg/injection, schedule: Q01DX Z (ip), vehicle: other 91 % of control | dose: 8.0 mg/kg/injection, schedule: Q01DX Z (ip), vehicle: carboxymethylcellulose (CMC) 100 % of control

O=S1(=O)CCCC1C(O)c1ccccc1 (stereo not drawn)
inactive: [2] 94 % of control and 98 % of control | [7] 105 % of control and 102 % of control | [8] 105 % of control and 94 % of control

CC(C)(C)N=C=NC(c1ccccc1)(c1ccccc1)c1ccccc1
inactive: [9] 97 % of control | [10] 94 % of control | [11] 87 % of control

NC(=O)c1cc(N2CC2)c([N+](=O)[O-])cc1[N+](=O)[O-]
inactive: dose: 5.0 mg/kg/injection, schedule: Q01DX001 (ip), vehicle: other 110 % of control | dose: 10.0 mg/kg/injection, schedule: Q01DX001 (ip), vehicle: other 98 % of control | dose: 10.0 mg/kg/injection, schedule: Q01DX009 (ip), vehicle: saline 105 % of control | dose: 20.0 mg/kg/injection, schedule: Q01DX001 (ip), vehicle: other 101 % of control | dose: 20.0 mg/kg/injection, schedule: Q01DX009 (ip), vehicle: saline 105 % of control | dose: 40.0 mg/kg/injection, schedule: Q01DX001 (ip), vehicle: other 106 % of control | dose: 40.0 mg/kg/injection, schedule: Q01DX009 (ip), vehicle: saline 113 % of control | dose: 50.0 mg/kg/injection, schedule: Q01DX001 (ip), vehicle: other 94 % of control | dose: 80.0 mg/kg/injection, schedule: Q01DX001 (ip), vehicle: other 97 % of control | [1] 96 % of control

O=C(Nc1ccccc1-c1ccccc1)c1ccc(Cl)cc1Cl
inactive: dose: 100.0 mg/kg/injection, schedule: Q04DX002 (ip), vehicle: Klucel (hydroxypropylcellulose) (HPC) 104 % of control | dose: 200.0 mg/kg/injection, schedule: Q04DX002 (ip), vehicle: Klucel (hydroxypropylcellulose) (HPC) 93 % of control | dose: 400.0 mg/kg/injection, schedule: Q04DX002 (ip), vehicle: Klucel (hydroxypropylcellulose) (HPC) 101 % of control

C1CC2CCCC3C4CCCC5CCCC(C(C1)C23)C54 (stereo not drawn)
inactive: dose: 100.0 mg/kg/injection, schedule: Q01DX001 (ip), vehicle: saline 94 % of control | dose: 200.0 mg/kg/injection, schedule: Q01DX001 (ip), vehicle: saline 100 % of control | dose: 400.0 mg/kg/injection, schedule: Q01DX001 (ip), vehicle: saline 97 % of control

CCOC(=O)c1[nH]c2c(c1CC(CC)[N+](=O)[O-])CCCC2 (stereo not drawn)
inactive: [4] 96 % of control | [2] 93 % of control | [5] 98 % of control | [7] 93 % of control | [6] 101 % of control | [8] 95 % of control

CCC1(CC)OC2=C(CC(C#N)(C#N)C(C#N)(C#N)C2)O1
inactive: dose: 5.0 mg/kg/injection, schedule: Q01DX009 (ip), vehicle: Klucel (hydroxypropylcellulose) (HPC) 104 % of control | dose: 10.0 mg/kg/injection, schedule: Q01DX001 (ip), vehicle: saline 102 % of control | dose: 10.0 mg/kg/injection, schedule: Q01DX009 (ip), vehicle: Klucel (hydroxypropylcellulose) (HPC) 105 % of control | dose: 20.0 mg/kg/injection, schedule: Q01DX001 (ip), vehicle: saline 89 % of control | dose: 20.0 mg/kg/injection, schedule: Q01DX009 (ip), vehicle: Klucel (hydroxypropylcellulose) (HPC) 102 % of control

O=C(Nc1cccc(C(F)(F)F)c1)C(O)C(O)C(O)C(O)CO (stereo not drawn)
inactive: [9] 91 % of control | [10] 94 % of control | [11] 91 % of control

CCOC(=O)C(N=Nc1ccccc1)C(C)=O (stereo not drawn)
inactive: dose: 12.5 mg/kg/injection, schedule: Q01DX009 (ip), vehicle: Klucel (hydroxypropylcellulose) (HPC) 100 % of control | dose: 25.0 mg/kg/injection, schedule: Q01DX009 (ip), vehicle: Klucel (hydroxypropylcellulose) (HPC) 97 % of control | [3] 94 % of control | [2] 103 % of control | [7] 100 % of control | [8] 88 % of control

O=C(COc1ccc(Cl)c(Cl)c1)Nc1ccc[n+](Cc2ccc(S(=O)(=O)F)cc2Cl)c1
inactive: dose: 100.0 mg/kg/injection, schedule: Q01DX009 (ip), vehicle: saline with Tween-80 94 % of control

From PubChem BioAssay AID248 (DTP/NCI, 2004)
